Reference: patent US10869850B2, “Nitrated-fatty acids modulation of type II diabetes” (University of Pittsburgh—Of the Commonwealth System of …, priority 2007, dated 2020)
Entries after “also recorded” stand apart in the source; their conditions may differ. Read-outs that look alike come from different tables or passages of the source.

Columns and labels:
[1] = tested on: ob/ob mice; assay: body weight of ob/ob mice (FIG. 4); settings: entire course of the study
[2] = tested on: WT mice; assay: body weight of WT mice (FIG. 4); settings: course of the study (25 days)
[3] = tested on: WT mice; assay: insulin sensitivity in WT mice (FIG. 5); type: in vivo, mouse
[4] = tested on: ob/ob mice; assay: insulin sensitivity in ob/ob mice (FIG. 6); type: in vivo, mouse
[5] = tested on: ob/ob mice; settings: mouse, in vivo
[6] = analysis of mouse plasma after intravenous administration of nitro oleic acid; type: in vivo
Method: In contrast, the plasma levels for the β-oxidation products are highest at around 60 minutes.

[7] = tested on: WT mice; assay: blood glucose levels in fed WT mice (FIG. 2); type: in vivo, mouse
Text: Similar results are observed in experiments involving ob/ob mice.

[8] = tested on: ob/ob mice; assay: blood glucose levels in leptin-deficient diabetic ob/ob mice (FIG. 3); type: in vivo, mouse; settings: for blood glucose levels: over the course of the study, FIG. 3
Text: In a related vein, the invention encompasses a method for gauging the therapeutic efficacy of the composition as described above. This method involves obtaining at least two blood samples from a subject at different times during treatment and measuring the level of blood glucose in each sample.

[9] = following intravenous administration of nitro oleic acid

CN(CCOc1ccc(CC2SC(=O)NC2=O)cc1)c1ccccn1 (stereo not drawn) [Rosiglitazone]
body weight [1]: steady increase in body weights | body weight [2]: do not change over the course of the study

9- or 10-nitro octadecenoic acid [nitro oleic acid]
blood glucose levels after administration of insulin [3]: initial drop in blood glucose levels followed by an elevation to normal levels | insulin sensitivity [4]: improves insulin sensitivity | blood glucose levels after administration of insulin ([4]; FIG. 6): substantial decrease in blood glucose levels | side-effects of weight gain and fluid retention [5]: without the side-effects of weight gain and fluid retention | shape of plasma level curve as a function of time [6, 9]: biphasic | time of peak plasma concentration [6, 9]: around 5 minutes | physiological fate (metabolism in vivo) ([6]; intravenous administration): converted in-vivo, to its saturated analog, or can undergo β-oxidative cleavage | effectiveness in maintaining blood glucose levels compared with Rosiglitazone ([7]; WT mice): at least as effective as Rosiglitazone | blood glucose level ([7]; fed WT mice): maintains a steady blood glucose level | blood glucose levels on day 21 versus beginning of the study ([8]; day 21, FIG. 3): significantly lower on day 21 than at the beginning of the study | blood glucose levels [8]: lower blood glucose levels; also recorded: effective in reducing blood glucose levels

CCCCCCCC/C=C\CCCCCCCC(=O)O [oleic acid, (Z)-octadec-9-enoic acid, reference compound]
body weight [5]: steady increase in body weights | blood glucose levels [8]: blood glucose levels increased over the course of the study
